pEC50: −log10 of the molar value.
Tests used:
MSTO-211H xenograft = assay: Mouse xenograft MSTO-211H tumors, study part 1; type: in vivo, BALB/c nude mice; conditions: PO; for Tumor size (mean ± SEM) / T/C / TGI: BID; for Tumor Volume (mean ± SEM): BID (Table 16)
Source text: This study evaluated the in vivo anti-tumor efficacy of test compounds in BALB/c nude mice for treatment of MSTO-211H xenograft of lung cancer.
• Species: Mus Musculus • Strain: BALB/c nude • Age: 6-8 weeks • Sex: female • Body weight: 18-22 g • Number of animals inoculated with tumor: 80 mice • Number of animals enrolled in the treatment: 36 mice • Number of unenrolled animals: 44 mice • Animal supplier: Beijing Vital River Biotechnology Experimental Animal Co. Ltd Certification number: 20170011010591
The MSTO-211H tumor cells were maintained in RPMI 1640 medium supplemented with 10% Fetal bovine serum and 1% Antibiotic-Antimycotic at 37° C. in an atmosphere of 5% CO2 in air. The tumor cells were routinely subcultured twice weekly by trypsin-EDTA. The cells growing in an exponential growth phase with 95% cell survival or above were harvested, and counted for tumor inoculation.
Each mouse was inoculated subcutaneously at the right flank with MSTO-211H tumor cells (5×10^6+50% matrigel/0.2 mL) for tumor development. Animals were marked with earrings with unique 6 significant figure number for identification. The treatments of part 1 were started on day 5 after cell inoculation when the average tumor volume reached 181 mm^3. The treatments of part 2 were started on day 16 after cell inoculation when the average tumor volume reached 254 mm^3. The treatments of part 3 were started on day 33 after cell inoculation when the average tumor volume reached 969 mm^3.
The major endpoint was to determine if the tumor growth could be delayed. Tumor volume was measured twice a week in two dimensions using a caliper, and the volume was expressed in mm^3 using the formula: V=0.5 a×b^2 where a and b are the long and short diameters of the tumor, respectively. The tumor size was then used for calculations of T/C value. The TGI value (in percent) or the T/C value (in percent) is an indication of antitumor effectiveness; T and C are the mean tumor volumes or tumor weights of the treated and control groups, respectively, on a given day.
TGI was calculated for each group using the formula: TGI (%)=[1−(Ti−T0)/(Vi−V0)]×100; Ti is the average tumor volume of a treatment group on a given day, T0 is the average tumor volume of the treatment group on the day of treatment start, Vi is the average tumor volume of the vehicle control group on the same day with Ti, and V0 is the average tumor volume of the vehicle group on the day of treatment start.
Relative T/C (%)=TRTV/CRTV×100 (RTV (%)=Vt/V0×100, Vt is the average tumor volume on a given day, V0 is the average tumor volume on the first day of treatment. TRTV is the RTV of a treatment group, and the CRTV is the RTV of the vehicle control group.)
The antitumor effectiveness of part 1 study was analyzed on PG-D31 when vehicle group reached 681 mm^3.
Summary statistics, including mean and the standard error of the mean (SEM), were provided for the tumor volume of each group at each time point.
Statistical analysis of difference in tumor volume among the groups was conducted on the data obtained at the end of the study.
One-tailed T test was performed to compare tumor volumes between two groups. All data are analyzed using GraphPad Prism 6.0. p<0.05 is considered to be statistically significant.

BHY cells = assay: BHY proliferation and cell viability assay (CTG); type: cell-based; conditions: 144 hours
Procedure: BHY cells were trypsinised, counted and plated at 2500 cells/well in 200 μl of growth media in 96 well flat bottom tissue culture treated plates. The plated cells were incubated overnight at 37° C., 5% CO2 before being treated with compounds in triplicate for each assay point. 50 μl of the serially diluted compound was added to each well giving a final DMSO concentration of 0.5% per well and a total volume of 250 μl per well. The treated cells were incubated for 144 hours (6 days) at 37° C., 5% CO2. Following compound treatment, the remaining viable cells were detected using the Promega CellTiter-Glo 2.0 assay as follows: 150 μl of media was removed from each of the wells to be assayed and 100 μl of room temperature CellTiter-Glo 2.0 reagent was added. The plate was placed on an orbital shaker at 500 rpm at room temperature for 2 minutes, and then incubated without shaking for a further 10 minutes at room temperature. 150 μl of cell lysate was removed from each well and dispensed into a single well of a white opaque 96 well plate. Luminescence at 545 nm was read using a BMG CLARIOstar plate reader. The luminescent signal was directly proportional to number of viable cells, the percent of viable cells relative to the DMSO control was then calculated for each assay point. Percent viability relative to DMSO control was plotted against compound concentration and a curve fitted with non-linear regression in GraphPad Prism software. EC50 and absolute IC50 values are calculated using GraphPad Prism software as follows: For EC50 values, a non-constrained four-parameter logistic curve fit was used (Sigmoidal, 4PL, X is concentration). For Absolute IC50 values the baseline was constrained to Y=0 and top at 100 (Absolute IC50, X is concentration). Area Under the Curve (AUC): Prism computes area-under-the-curve by the trapezoidal method. The analysis sees a fitted curve as simply a series of connected XY points. Prism simply computes the area under the “curve” defined by connecting the points by straight lines. The units of the AUC are the units of the Y axis times units of the X axis. […]

Compound | Tumor size (mean ± SEM) (MSTO-211H xenograft; part 1, day 0, 12.5 mg/kg) [mm^3] | Tumor size (mean ± SEM) (MSTO-211H xenograft; part 1, day 3, 12.5 mg/kg) [mm^3] | Tumor size (mean ± SEM) (MSTO-211H xenograft; part 1, day 6, 12.5 mg/kg) [mm^3] | Tumor size (mean ± SEM) (MSTO-211H xenograft; part 1, day 10, 12.5 mg/kg) [mm^3] | Tumor size (mean ± SEM) (MSTO-211H xenograft; part 1, day 13, 12.5 mg/kg) [mm^3] | Tumor size (mean ± SEM) (MSTO-211H xenograft; part 1, day 17, 12.5 mg/kg) [mm^3] | Tumor size (mean ± SEM) (MSTO-211H xenograft; part 1, day 20, 12.5 mg/kg) [mm^3] | Tumor size (mean ± SEM) (MSTO-211H xenograft; part 1, day 23, 12.5 mg/kg) [mm^3] | Tumor size (mean ± SEM) (MSTO-211H xenograft; part 1, day 27, 12.5 mg/kg) [mm^3] | T/C (MSTO-211H xenograft; part 1, day 31, 12.5 mg/kg) [%] | TGI (MSTO-211H xenograft; part 1, day 31, 12.5 mg/kg) [%] | Tumor size (mean ± SEM) (MSTO-211H xenograft; part 1, day 31, 12.5 mg/kg) [mm^3] | Tumor Volume (mean ± SEM) (MSTO-211H xenograft; part 1, day 31, 12.5 mg/kg) [mm^3] | pEC50 (BHY cells)
Cn1cnc(-c2cc([C@@]3(C)CCNC3=O)ccc2Nc2ccc(C(F)(F)F)cc2)c1 (single isomer, unassigned) [Compound 5, 3-methyl-3-(3-(1-methyl-1H-imidazol-4-yl)-4-((4-(trifluoromethyl)phenyl)amino)phenyl)pyrrolidin-2-one] | 181 ± 11 | 241 ± 31 | 230 ± 30 | 151 ± 18 | 117 ± 10 | 63 ± 13 | 72 ± 15 | 64 ± 7 | 79 ± 13 | 11.82 | 120.17 | 81 ± 18 | 81 ± 18 | 6.00 to 6.70
Cn1nnc(-c2cc([C@]3(C)CCNC3=O)ccc2Nc2ccc(C(F)(F)F)cc2)n1 (stereo in doubt) [Compound 20, 3-methyl-3-(3-(2-methyl-2H-tetrazol-5-yl)-4-((4-(trifluoromethyl)phenyl)amino)phenyl) pyrrolidin-2-one] | 181 ± 7 | 183 ± 26 | 188 ± 52 | 117 ± 44 | 92 ± 28 | 66 ± 10 | 60 ± 13 | 59 ± 16 | 75 ± 18 | 8.81 | 124.25 | 60 ± 11 | 60 ± 11 | –
C=CC(=O)Nc1ccc(C)c(Oc2ccc(Cl)cc2)c1 [Compound 1-3, reference compound] | – | – | – | – | – | – | – | – | – | – | – | – | – | > 6.70
FC(F)(F)c1ccc(CN2CCC(C3CC(Br)=NO3)CC2)cc1 (stereo not drawn) [Compound 1-2, reference compound] | – | – | – | – | – | – | – | – | – | – | – | – | – | < 6.00
Cn1cnc(-c2cc(C3(C)NC(=O)NC3=O)ccc2Nc2ccc(C(F)(F)F)cc2)c1 (single isomer, unassigned) [Compound 15, 5-methyl-5-(3-(1-methyl-1H-imidazol-4-yl)-4-((4-(trifluoromethyl)phenyl)amino)phenyl)imidazolidine-2,4-dione] | 181 ± 11 | 216 ± 27 | 175 ± 19 | 154 ± 5 | 111 ± 13 | 88 ± 12 | 105 ± 6 | 134 ± 10 | 166 ± 20 | 23.57 | 104.12 | 161 ± 12 | 161 ± 12 | –
